Measured values from PubChem BioAssay AID1552 (Sanford-Burnham Center for Chemical Genomics, 2009).
Calls of active or inactive are those of the source. How the calls were made is not given here.

These compounds were tested against Ubiquitin-conjugating enzyme E2 N (Homo sapiens) (UniProt P61088) (assay: UBE2N binders by NMR, biophysical, purified protein (AID 1552)). Settings: NMR binding to purified UBE2N.
Chain of Ubiquitin-conjugating enzyme E2 N (Homo sapiens) (P61088 whole entry, looked up): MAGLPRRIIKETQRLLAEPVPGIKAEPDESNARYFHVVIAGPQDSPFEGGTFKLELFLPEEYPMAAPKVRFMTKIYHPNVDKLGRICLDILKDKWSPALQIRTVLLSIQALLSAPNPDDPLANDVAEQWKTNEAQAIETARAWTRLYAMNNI
In the case of `CC(=O)c1c(O)c(C)c(O)c2c1OC1=CC(=O)C(C(C)=O)C(=O)C12C` (stereo unspecified), the Kd is reported as > 4 mM (inactive). With `CCP(=O)(CC)c1cccc(C)c1` the Kd was > 4 mM (inactive). `CC(C)c1c(O)ccc2c1CCC1[C@@](C)(CO)CCC[C@]21C` (stereo partly specified) was tested, and the Kd was > 4 mM (inactive). With `COc1ccc2c(c1)OCC(Cc1ccc(OC)c(OC(C)=O)c1)C2=O` (stereo unspecified) the Kd was > 4 mM (inactive). `CN1CCC(NC(=O)c2cccnc2)CC1` was tested, and the Kd was > 4 mM (inactive). In the case of `N#Cc1ccccc1CSc1ccccn1`, the Kd is reported as > 4 mM (inactive). For `CC(=O)NCc1nc2ccccc2[nH]1`, the Kd was > 4 mM (inactive). With `OCC(O)Cc1ccc2c(c1)OCO2` (stereo unspecified) the Kd was > 4 mM (inactive). In the case of `O=C(Nc1ccon1)c1csc2ccccc12`, the Kd is reported as > 4 mM (inactive). With `CC(=O)OC[C@H]1O[C@@H](Oc2cc(OC(C)=O)c3c(=O)cc(-c4ccc(OC(C)=O)cc4)oc3c2)[C@H](OC(C)=O)[C@@H](OC(C)=O)[C@@H]1OC(C)=O` the Kd was > 4 mM (inactive). In the case of `CC(=O)Nc1ccccc1-c1ccccc1NC(C)=O`, the Kd is reported as > 4 mM (inactive). For `COn1c(=O)c(C)[n+]([O-])c2ccccc21`, the Kd was > 4 mM (inactive). With `NC(=O)c1ccccc1N=Cc1ccco1` the Kd was > 4 mM (inactive). For `COc1cc2c(c(OC)c1OC)-c1ccc(OC)c(=O)cc1[C@@H](NC(C)=O)CC2`, the Kd was > 4 mM (inactive). For `CP(C)(=O)CCC(=O)O`, the Kd was > 4 mM (inactive). With `COc1cccc2c(=O)n(CC(N)=O)ccc12` the Kd was > 4 mM (inactive). For `NS(=O)(=O)c1ccc(NC(=O)c2ccccc2F)cc1`, the Kd was > 4 mM (inactive). In the case of `C#CCCCCCCCCCCCc1ccco1`, the Kd is reported as > 4 mM (inactive). In the case of `Cc1oc2nc3c(c(=O)[nH]c(=O)n3C)n2c1C`, the Kd is reported as > 4 mM (inactive). `CC(C)=CCc1c(O)cc2oc(C)cc(=O)c2c1O` was tested, and the Kd was > 4 mM (inactive). For `COc1cc2c(cc1OC)-c1nnnn1C(C)(C)C2`, the Kd was > 4 mM (inactive). In the case of `Cn1c(SCC(N)=O)nnc1-c1cccnc1`, the Kd is reported as > 4 mM (inactive). For `COC1C(O)C(O)C(O)[C@@H](O)C1O` (stereo partly specified), the Kd was > 4 mM (inactive). `Cc1occc1C(=O)Nc1nnc(-c2ccncc2)s1` was tested, and the Kd was > 4 mM (inactive). `S=C(NC1=NCCS1)Nc1ccccc1` was tested, and the Kd was > 4 mM (inactive). For `CC12CN3CC(C)(CN(C1)C3c1cccs1)C2O` (stereo unspecified), the Kd was > 4 mM (inactive). With `CC(=O)NCCc1cc2ccc(C)c(C)c2[nH]c1=O` the Kd was > 4 mM (inactive). For `O=S(=O)(O)c1cc[n+]([O-])cc1`, the Kd was > 4 mM (inactive). In the case of `NCc1nc2ccccc2s1`, the Kd is reported as > 4 mM (inactive). In the case of `CNC(=O)COc1cccc2c1CCNC2=O`, the Kd is reported as > 4 mM (inactive). With `Cc1c(C(=O)Nc2ccncc2)oc2c1C(=O)CC(C)(C)C2` the Kd was > 4 mM (inactive). `COc1cccc(=O)c2c(C)n(C)c(C)c12` was tested, and the Kd was > 4 mM (inactive). In the case of `O=C(O)c1coc2c1C(=O)CCC2`, the Kd is reported as > 4 mM (inactive). For `Cc1ccc2cc(N)ccc2n1`, the Kd was > 4 mM (inactive). For `NC12CC3CC(C1)CC(C(=O)O)(C3)C2`, the Kd was > 4 mM (inactive). For `Nc1ncnc2c1ncn2C1C[C@H](O)[C@@H](CO)O1` (stereo partly specified), the Kd was > 4 mM (inactive). `COC(=O)c1ccc2nsnc2c1` was tested, and the Kd was > 4 mM (inactive). In the case of `OCC12COC3c4ccccc4C(OC1)N32` (stereo unspecified), the Kd is reported as > 4 mM (inactive). For `Cc1oc(-c2ccccc2)nc1CC(=O)O`, the Kd was > 4 mM (inactive). In the case of `Cc1nnc(NCc2cccnc2)[nH]c1=O`, the Kd is reported as > 4 mM (inactive). `O=c1c2ccccc2nc2n1CCS2` was tested, and the Kd was > 4 mM (inactive). With `c1ccc(Cn2cccc2)nc1` the Kd was > 4 mM (inactive). For `C=C1CSc2nc(=O)c3c(C)c(C)sc3n21`, the Kd was > 4 mM (inactive). In the case of `N#Cc1nc(-c2cccs2)oc1N1CCOCC1`, the Kd is reported as > 4 mM (inactive). In the case of `COc1ccccc1-c1cn[nH]c(=S)n1`, the Kd is reported as > 4 mM (inactive). For `O=C(O)C1CC(=O)N(Cc2cccs2)C1` (stereo unspecified), the Kd was > 4 mM (inactive). `COc1cc(S(=O)(=O)N(C)C)ccc1F` was tested, and the Kd was > 4 mM (inactive). With `NCc1ccc(-c2cccs2)cc1` the Kd was > 4 mM (inactive). In the case of `CC(=O)NC(=S)Nc1ccccc1C(N)=O`, the Kd is reported as > 4 mM (inactive). In the case of `CC(=O)NC(O)C(=O)c1ccccc1` (stereo unspecified), the Kd is reported as > 4 mM (inactive). With `Cc1ccc(C(=O)Nc2nnc(-c3ccncc3)s2)o1` the Kd was > 4 mM (inactive). With `COc1cc2c(cc1OC)[C@@H]1C(=O)c3ccc4oc(C(C)C)cc4c3O[C@@H]1CO2` the Kd was > 4 mM (inactive). `COc1cc(C(=O)NCC2CCCO2)cc(OC)c1OC` (stereo unspecified) was tested, and the Kd was > 4 mM (inactive). `C=C(C)CSc1nc2nc(C)cc(C)n2n1` was tested, and the Kd was > 4 mM (inactive). With `CNS(=O)(=O)c1ccc2[nH]c(=O)[nH]c2c1` the Kd was > 4 mM (inactive). For `NC(=O)c1cc(N)ccc1N1CCCCC1`, the Kd was > 4 mM (inactive). For `CCN1CCC2(CC1)CC1CC3C=CC1(CN2C(C)=O)O3` (stereo unspecified), the Kd was > 4 mM (inactive). In the case of `Nc1nc(-c2ccc(Cl)cc2)nn1C(=O)c1cccnc1`, the Kd is reported as > 4 mM (inactive). For `c1cncc(Nc2nc(-c3ccncc3)cs2)c1`, the Kd was > 4 mM (inactive). In the case of `O=C(Nc1cccnc1)Nc1ccc2c(c1)OCO2`, the Kd is reported as > 4 mM (inactive). For `O=C(O)C12CC3CC(CC(O)(C3)C1)C2`, the Kd was > 4 mM (inactive).
